Measured values published in patent publication US20220304950A1, “[…] THE TREATMENT OF PATIENTS WITH MAJOR DEPRESSIVE DISORDER, INCLUDING SUICIDALITY” (JANSSEN PHARMACEUTICALS, INC., priority 2019, published 2022).

System: adult patients with MDD assessed to be at imminent risk for suicide
Assay: Adverse events (TEAEs, SAEs), Study 1 (Example 4)
Description: This is a randomized, double-blind, placebo-controlled, multicenter study to evaluate the efficacy of intranasal esketamine 84 mg compared with intranasal placebo in addition to comprehensive standard of care in reducing the symptoms of MDD, including suicidal ideation, in adult male and female patients who were assessed to be at imminent risk for suicide.
The study consisted of a screening evaluation performed within 48 hours prior to the Day 1 intranasal dose, immediately followed by a 25-day double-blind treatment phase (Day 1 to 25), and a 65-day follow-up phase (Day 26 to Day 90). The total study duration for each subject was approximately 13 weeks.
The study consisted of a screening evaluation performed within 24 to 48 hours prior to the Day 1 dose, immediately followed by a 25-day double-blind treatment phase (Day 1 to 25) with twice-weekly dosing sessions, and a 9-week follow up phase (Day 26 to Day 90). All participants received comprehensive SOC, including in-patient psychiatric hospitalization and the initiation or optimization of standard antidepressant medication (determined by the treating physician based on clinical judgment and practice guidelines).

[1] = Esk 84 mg + SOC, double-blind phase
[2] = Esk 84 mg + SOC, double-blind phase, listed as ESK
[3] = Esk 84 mg + SOC, double-blind phase, listed as Esk
[4] = Esk 84 mg + SOC, follow-up phase

In the case of CN[C@]1(c2ccccc2Cl)CCCCC1=O [esketamine, (S)-2-(2-chlorophenyl)-2-(methylamino)cyclohexanone], the “SAEs: depression-related events, number” value (ESK+SOC, follow-up phase) is reported as 3, the “SAEs: suicidal ideation-related events, number” value (ESK+SOC, follow-up phase) is reported as 7 and the “Serious TEAE Aggression, subjects n” value [1] is reported as 0. For the same compound, the “Serious TEAE Depression suicidal, subjects %” value [1] was “(1.8%)”, the “Serious TEAE Depression, subjects %” value [1] was “(0.9%)” and the “Serious TEAE Depression, subjects n” value [1] was 1. The “Serious TEAE Diabetic ketoacidosis, subjects %” value [1] was “(0.9%)”, the “Serious TEAE Diabetic ketoacidosis, subjects n” value [1] was 1 and the “Serious TEAE Hepatobiliary disorders, subjects n” value [1] was 0. The “Serious TEAE Hypertransaminasaemia, subjects n” value [1] was 0, the “Serious TEAE Metabolism and nutrition disorders, subjects %” value [1] was “(0.9%)” and the “Serious TEAE Metabolism and nutrition disorders, subjects n” value [1] was 1. The “Serious TEAE Psychiatric disorders, subjects n” value [1] was 3, the “Serious TEAE Suicidal ideation, subjects n” value [1] was 0 and the “Serious TEAE Suicide attempt, subjects %” value [1] was “(0.9%)”. The “Serious TEAE Suicide attempt, subjects n” value [1] was 1, the “Subjects with 1 or more TEAEs, %” value [1] was 88.5% and the “Subjects with related TEAEs, %” value [1] was “(79.6%)”. For the same compound, the “Subjects with related severe TEAEs, %” value [1] was “(6.2%)”, the “Subjects with serious TEAEs, %” value [1] was 3.5% and the “TEAE Anxiety, subjects %” value [1] was “(5.3%)”. The “TEAE Anxiety, subjects n” value [1] was 6, the “TEAE Blood pressure increased, subjects %” value [1] was “(16.8%)” and the “TEAE Blood pressure increased, subjects n” value [1] was 19. The “TEAE Constipation, subjects %” value [1] was “(13.3%)”, the “TEAE Constipation, subjects n” value [1] was 15 and the “TEAE Dissociation, subjects %” value [1] was 29.2%. For the same compound, the “TEAE Dissociation, subjects n” value [1] was 33, the “TEAE Dizziness postural, subjects %” value [1] was “(5.3%)” and the “TEAE Dizziness postural, subjects n” value [1] was 6. The “TEAE Dizziness, subjects %” value [1] was 35.4%, the “TEAE Dizziness, subjects n” value [1] was 40 and the “TEAE Dysgeusia, subjects n” value [1] was 16. The “TEAE Ear and labyrinth disorders, subjects %” value [1] was “(8.0%)”, the “TEAE Ear and labyrinth disorders, subjects n” value [1] was 9 and the “TEAE Eye disorders, subjects %” value [1] was “(11.5%)”. For the same compound, the “TEAE Eye disorders, subjects n” value [1] was 13, the “TEAE Gastrointestinal disorders, subjects %” value [1] was “(38.1%)” and the “TEAE Gastrointestinal disorders, subjects n” value [1] was 43. The “TEAE Headache, subjects n” value [1] was 21, the “TEAE Hypoaesthesia, subjects %” value [1] was “(7.1%)” and the “TEAE Hypoaesthesia, subjects n” value [1] was 8. The “TEAE Insomnia, subjects %” value [1] was “(6.2%)”, the “TEAE Insomnia, subjects n” value [1] was 7 and the “TEAE Investigations, subjects %” value [1] was “(24.8%)”. For the same compound, the “TEAE Investigations, subjects n” value [1] was 28, the “TEAE Nausea, subjects %” value [1] was 20.4% and the “TEAE Nausea, subjects n” value [1] was 23. The “TEAE Nervous system disorders, subjects %” value [1] was “(68.1%)”, the “TEAE Nervous system disorders, subjects n” value [1] was 77 and the “TEAE Psychiatric disorders, subjects %” value [1] was “(45.1%)”. The “TEAE Psychiatric disorders, subjects n” value [1] was 51, the “TEAE Sedation, subjects %” value [1] was “(6.2%)” and the “TEAE Sedation, subjects n” value [1] was 7. For the same compound, the “TEAE Somnolence, subjects n” value [1] was 21, the “TEAE Vertigo, subjects %” value [1] was “(6.2%)” and the “TEAE Vertigo, subjects n” value [1] was 7. For the same compound, the “TEAE Vision blurred, subjects %” value [1] was “(8.8%)”, the “TEAE Vision blurred, subjects n” value [1] was 10 and the “TEAE Vomiting, subjects %” value [1] was “(7.1%)”. The “TEAE Vomiting, subjects n” value [1] was 8, the “TEAE dysgeusia, subjects %” value [1] was “(14.2%)” and the “TEAE headache, subjects %” value [1] was “(18.6%)”. For the same compound, the “TEAE leading to discontinuation: Aggression, subjects n” value [1] was 0, the “TEAE leading to discontinuation: Atrioventricular block first degree, subjects n” value [1] was 0 and the “TEAE leading to discontinuation: Blood pressure diastolic increased, subjects n” value [1] was 0. For the same compound, the “TEAE leading to discontinuation: Blood pressure increased, subjects %” value [1] was 0.9%, the “TEAE leading to discontinuation: Blood pressure increased, subjects n” value [1] was 1 and the “TEAE leading to discontinuation: Cardiac disorders, subjects n” value [1] was 0. For the same compound, the “TEAE leading to discontinuation: Confusional state, subjects %” value [1] was 0.9%, the “TEAE leading to discontinuation: Confusional state, subjects n” value [1] was 1 and the “TEAE leading to discontinuation: Dissociation, subjects %” value [1] was 0.9%. For the same compound, the “TEAE leading to discontinuation: Dissociation, subjects n” value [1] was 1, the “TEAE leading to discontinuation: Dizziness, subjects %” value [1] was 0.9% and the “TEAE leading to discontinuation: Dizziness, subjects n” value [1] was 1. For the same compound, the “TEAE leading to discontinuation: Hallucination, visual, subjects %” value [1] was 0.9%, the “TEAE leading to discontinuation: Hallucination, visual, subjects n” value [1] was 1 and the “TEAE leading to discontinuation: Headache, subjects %” value [1] was 0.9%. The “TEAE leading to discontinuation: Headache, subjects n” value [1] was 1, the “TEAE leading to discontinuation: Hepatobiliary disorders, subjects n” value [1] was 0 and the “TEAE leading to discontinuation: Hypertransaminasaemia, subjects n” value [1] was 0. The “TEAE leading to discontinuation: Hypoaesthesia, subjects %” value [1] was 0.9%, the “TEAE leading to discontinuation: Hypoaesthesia, subjects n” value [1] was 1 and the “TEAE leading to discontinuation: Investigations, subjects %” value [1] was 0.9%. The “TEAE leading to discontinuation: Investigations, subjects n” value [1] was 1, the “TEAE leading to discontinuation: Nervous system disorders, subjects %” value [1] was 2.7% and the “TEAE leading to discontinuation: Nervous system disorders, subjects n” value [1] was 3. For the same compound, the “TEAE leading to discontinuation: Pharyngeal hypoaesthesia, subjects %” value [1] was 0.9%, the “TEAE leading to discontinuation: Pharyngeal hypoaesthesia, subjects n” value [1] was 1 and the “TEAE leading to discontinuation: Psychiatric disorders, subjects %” value [1] was 2.7%. The “TEAE leading to discontinuation: Psychiatric disorders, subjects n” value [1] was 3, the “TEAE leading to discontinuation: Respiratory, thoracic and mediastinal disorders, subjects %” value [1] was 0.9% and the “TEAE leading to discontinuation: Respiratory, thoracic and mediastinal disorders, subjects n” value [1] was 1. The “TEAE leading to discontinuation: Sedation, subjects %” value [1] was 0.9%, the “TEAE leading to discontinuation: Sedation, subjects n” value [1] was 1 and the “TEAE leading to discontinuation: Somnolence, subjects %” value [1] was 0.9%. The “TEAE leading to discontinuation: Somnolence, subjects n” value [1] was 1, the “TEAE leading to discontinuation: Suicidal ideation, subjects n” value [1] was 0 and the “TEAE somnolence, subjects %” value [1] was “(18.6%)”. The “Serious TEAE Depression suicidal, subjects n” value [2] was 1, the “Serious TEAE Psychiatric disorders, subjects %” value [2] was less than 5% and the “Subjects with severe TEAEs, %” value [2] was 8.8%. For the same compound, the “Serious TEAE Depression suicidal, subjects n” value [3] was 2, the “Serious TEAE Psychiatric disorders, subjects %” value [3] was “(2.7%)” and the “Subjects with 1 or more TEAEs, %” value [3] was “(88.5%)”. The “Subjects with serious TEAEs, %” value [3] was “(3.5%)”, the “Subjects with severe TEAEs, %” value [3] was “(8.8%)” and the “TEAE Dissociation, subjects %” value [3] was “(29.2%)”. For the same compound, the “TEAE Dizziness, subjects %” value [3] was “(35.4%)”, the “TEAE Nausea, subjects %” value [3] was “(20.4%)” and the “Subjects with TEAEs leading to discontinuation of study agent, %” value (Esk 84 mg + SOC, double-blind phase, safety set) was 4.4%. The “AE Anxiety, subjects %” value [4] was “(3.0%)”, the “AE Anxiety, subjects n” value [4] was 3 and the “AE Depression, subjects %” value [4] was “(8.9%)”. The “AE Depression, subjects n” value [4] was 9, the “AE Headache, subjects %” value [4] was “(5.9%)” and the “AE Headache, subjects n” value [4] was 6. The “AE Nervous system disorders, subjects %” value [4] was “(11.9%)”, the “AE Nervous system disorders, subjects n” value [4] was 12 and the “AE Psychiatric disorders, subjects %” value [4] was “(28.7%)”. The “AE Psychiatric disorders, subjects n” value [4] was 29, the “AE Suicidal ideation, subjects %” value [4] was “(5.0%)” and the “AE Suicidal ideation, subjects n” value [4] was 5. For the same compound, the “SAE Completed suicide, subjects %” value [4] was “(1.0%)”, the “SAE Completed suicide, subjects n” value [4] was 1 and the “SAE Depression suicidal, subjects %” value [4] was “(5.0%)”. The “SAE Depression suicidal, subjects n” value [4] was 5, the “SAE Depression, subjects %” value [4] was “(1.0%)” and the “SAE Depression, subjects n” value [4] was 1. The “SAE Depressive symptom, subjects %” value [4] was “(1.0%)”, the “SAE Depressive symptom, subjects n” value [4] was 1 and the “SAE Major depression, subjects %” value [4] was “(1.0%)”. For the same compound, the “SAE Major depression, subjects n” value [4] was 1, the “SAE Musculoskeletal and connective tissue disorders, subjects n” value [4] was 0 and the “SAE Psychiatric disorders, subjects %” value [4] was “(12.9%)”. The “SAE Psychiatric disorders, subjects n” value [4] was 13, the “SAE Rhabdomyolysis, subjects n” value [4] was 0 and the “SAE Suicidal ideation, subjects %” value [4] was “(2.0%)”. For the same compound, the “SAE Suicidal ideation, subjects n” value [4] was 2, the “SAE Suicide attempt, subjects %” value [4] was “(3.0%)” and the “SAE Suicide attempt, subjects n” value [4] was 3. The “Subjects with 1 or more AEs, %” value [4] was “(48.5%)”, the “Subjects with AEs leading to death, %” value [4] was “(1.0%)” and the “Subjects with serious AEs, %” value [4] was 12.9%. The “Subjects with severe AEs, %” value [4] was “(5.9%)”, the “Subjects with serious AEs, %” value (Esk 84 mg + SOC, follow-up phase, listed as Esk) was “(12.9%)” and the “Overall safety and tolerability (in words)” value (intranasal ESK+SOC) was “safe and tolerated”.
